Reference: patent publication US20090142281A1, “Composition Comprising A Coupled Enzyme System” (priority 2005, published 2009)
Like-named read-outs stand apart in the source and are kept apart here.

How the values were obtained:
Format in all cases: biochemical
Sorbitol oxidase [1] = target: T1, Sorbitol oxidase (Streptomyces coelicolor, UniProt Q9ZBU1)
T1 construct: made in house; host or cells: Streptomyces lividans g3s3 (vector pKB105, PSMM-SOX)
Protocol: Sorbitol oxidase obtained using the methods described in Example 3-4, was tested for finding its activity with various polyol substrates. All substrates used in the assay were 55 mM in 100 mM phosphate buffer pH 7.0 at 25° C. The relative activity using sorbitol as (++++++=100%) is shown below in Table 1. In addition to these substrates, it is contemplated that other substrates, including, but not limited to glycerol, will find use in the present invention.

Sorbitol oxidase [2] = target: T1, Sorbitol oxidase; test: Relative activity of sorbitol oxidase on xylitol and sorbitol (ABTS assay); settings: rate of H2O2 production, substrate in excess, same amount of enzyme
Protocol: The commonly used horse radish peroxidase dye substrate ABTS was incorporated into an assay, measuring the production of H2O2 produced by HOX or GOX respectively. ABTS serves as a chromogenic substrate for peroxidase. Peroxidase in combination with H2O2 facilitates the electron transport from the chromogenic dye, which is oxidised to an intensely green/blue compound.
An assay mixture contained 266 μl sorbitol (Sigma P-5504, 0.055 M in 0.1 M sodium phosphate buffer, pH 6.3), (or alternative substrate, e.g. xylitol), 12 μl 2,2′-Azino-bis(3-ethylbenzothiozoline-6-Sulfonic acid) (ABTS) (Sigma A-9941, 5 mg/ml aqueous solution), 12 μl peroxidase (POD) (Sigma P-6782, 0.1 mg/ml in 0.1 M sodium phosphate buffer, pH 6.3) and 10 μl enzyme (SOX or HOX) aqueous solution.
The assay is performed at 25° C.
The incubation was started by the addition of glucose. The absorbance was monitored at 405 nm in an ELISA reader. A standard curve, based on varying concentrations of H2O2, was used for calculation of enzyme activity according to the definition above.
The purpose was to measure the difference in activity of sorbitol oxidase on D-sorbitol and D-xylitol. The ABTS assay was used as described previously to measure the rate of H2O2 production when both D-sorbitol and D-xylitol was in excess. The same amount of enzyme, as prepared in the previous examples was used in both cases. […]

[3] = system: hydrogen peroxide production; test: Synergy between the two enzymes: initial velocity of H2O2 production in 300 uL ABTS assay; settings: further enzyme at 1× to 3000× excess over polyol oxidase; especially at dosages greater than 1×
From the text: In the example below the amounts of enzyme are given as unit amounts.
A unit of HOX is the amount of enzyme that produced 1 umol H202/min when substrates are in excess.
A unit of GOX is the amount of enzyme that produced 1 umol H202/min when substrates are in excess.
A unit of SOX is the amount of enzyme that produced 1 umol H202/min when substrates are in excess.
The generated sugar will be the limiting factor for the secondary enzyme. As noted above the activity is given as a percentage value of SOX catalysing D-sorbitol when both D-sorbitol and oxygen is in excess.
Initial velocities were measured over 5 minutes in 300 uL ABTS assay (as described previously). The production of rate of hydrogen peroxide production was extrapolated from a standard curve. The measured activity, shown in FIG. 3 and FIG. 4 are given as a percentage value. 100% is defined as the rate of hydrogen peroxide production by sorbitol oxidase alone, when the substrates D-sorbitol and oxygen is in excess (Linear velocity curves)

[4] = In gel overlay activity assay (PMS/NBT) using sorbitol as substrate; settings: native gel
From the text: b) In gel overlay activity assay (PMS/NBT) using sorbitol as substrate.
The cell lysates were fractionated on a native gel that was further tested in an in-gel overlay activity assay using sorbitol as the substrate and an assay based on the PMS mediated reduction of NBT. […] The PMS/NBT is a diagnostic assay for flavoproteins where PMS=phenazine methosulfate is a redox mediator which is reduced by reduced FAD.

[5] = substrate 55 mM in 100 mM phosphate buffer pH 7.0 at 25° C., relative to sorbitol

T1 sequence (Q9ZBU1 other isoform, or with tags, fused parts or gaps): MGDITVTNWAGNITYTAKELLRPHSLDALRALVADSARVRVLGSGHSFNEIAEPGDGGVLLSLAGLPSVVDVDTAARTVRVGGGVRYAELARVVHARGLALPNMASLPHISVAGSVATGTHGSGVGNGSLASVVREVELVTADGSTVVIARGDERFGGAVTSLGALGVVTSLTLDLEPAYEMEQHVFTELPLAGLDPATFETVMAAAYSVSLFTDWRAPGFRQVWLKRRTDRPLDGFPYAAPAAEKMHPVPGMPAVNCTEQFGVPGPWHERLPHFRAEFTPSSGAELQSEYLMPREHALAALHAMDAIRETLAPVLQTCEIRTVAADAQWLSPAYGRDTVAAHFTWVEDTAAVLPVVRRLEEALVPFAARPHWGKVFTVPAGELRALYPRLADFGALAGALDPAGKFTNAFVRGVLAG

Row | Molecule | Relative Activity (+, 0) (Sorbitol oxidase [1]; [5]) | Relative activity% (Sorbitol oxidase [2]) [%] | Relative Activity (+, 0) (Sorbitol oxidase [1]; pH 7) | other results
1 | OC[C@@H](O)[C@@H](O)[C@H](O)[C@H](O)CO [D-Mannitol] | + + + |  |  | 
2 | OC[C@@H](O)[C@@H](O)[C@H](O)[C@@H](O)CO [D-Sorbitol] | + + + + + + | 100 |  | 
3 | OC[C@@H](O)[C@H](O)[C@@H](O)CO [D-Xylitol] |  | 47.6 | + + + + | 
4 | OCCO [Ethylene glycol] |  |  | 0 | 
5 | CC(O)CO (stereo not drawn) [Propylene glycol] | 0 |  |  | 
6 | glucose oxidase [reference compound] |  |  |  | synergy in initial velocity of H2O2 production (FIG. 4) [3]: dramatic synergy; activity towards sorbitol (stained band) [4]: not active towards sorbitol
